# Measurements from US20230055441A1 (NONO INC., priority 2020, published 2023).
# “Also recorded” adds a separate entry of the source. Square brackets hold non-standard residues; d marks the D form. Ends that are not written are not given here. Peptide text beside a SMILES is read from it.
# Columns and labels:
# [1] = system: tPA; assay: tPA in PBS buffer (no plasma)
# [2] = system: TNK-tissue plasminogen activator; assay: rat plasma with TNK
# [3] = system: TNK-tissue plasminogen activator; assay: human plasma with TNK
# [4] = biological target: T1, PSD95PDZ2 (Homo sapiens, UniProt P78352); assay: competitive ELISA, PSD95PDZ2 coated, competitor biotinylated NA-1
# Target sequence in this assay (P78352 160-246 limits assumed): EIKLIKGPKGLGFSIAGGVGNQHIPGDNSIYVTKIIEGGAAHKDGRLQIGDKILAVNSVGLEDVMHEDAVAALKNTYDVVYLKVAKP
# [5] = biological target: T1, PSD95PDZ2; assay: Competitive ELISA with biotinylated-NA-1 on coated PSD95PDZ2; format: binding
# Procedure: Binding was evaluated with a competitive ELISA assay. A plate was coated with 1 ug/ml PSD95PDZ2 in 50 mM bicarbonate buffer overnight at 4C. The plate was blocked in 2% BSA in PBST (0.05%) for 2 h at room temperature. […] The wells were washed again, and then incubated with TMB solution for 10 min. The reaction was stopped with 100 ul H2SO4. Absorbance was determined at 450 nm with the synergy H1 reader.
# Target sequence in this assay (P78352 160-246 limits assumed): as above
# [6] = Pharmacokinetic analysis in rats by route (subcutaneous, pulmonary instillation, intramuscular, intravenous); details: rat; for Cmax / plasma concentration, pulmonary instillation / plasma exposure, pulmonary instillation / AUC / plasma exposure, subcutaneous / Cmax, subcutaneous: 25 mg/kg (Table 4); for plasma exposure, pulmonary instillation: versus intrapulmonary NA-1; for AUC / plasma exposure, subcutaneous / Cmax, subcutaneous: NA-1 versus IV NA-1, others versus subcutaneous NA-1
# Procedure: Rats were anaesthetized in the supine position (Isoflurane 1.5-%) and allowed to breath spontaneously in 0.5 L/min 02. The left femoral artery was cannulated for blood sampling.
# Test agents were prepared at the stablish concentration in a total volume of vehicle. Pulmonary instillation was performed by intubation with a 14G catheter connected to a 1 cc syringe and the test agent will be delivered through the catheter. Subcutaneous (SQ or SC) injection was injected into the area of the left flank, no more than 2 ml of total volume per site.
# Each dose was evaluated in 3 rats for each administration strategy. […] For the first experiment, evaluating two different administration routes (SQ and PI), blood samples were collected at 8 different timepoints: Pre and at 7 additional times (1, 2.5, 5, 10, 15, 30, 60 min) post dose (250 ul/sample). For the 24-hour PK curve experiment, blood samples were collected at 11 timepoints: Pre, 2.5, 5, 10, 15, 30, 60 min, 3 hr, 6 hr, 12 hr and 24 hr.
# HPLC quantification: Plasma was separated from blood and stored at −80° C. until used. Each sample was precipitated by adding 1M HCl (10 ul/100 ul sample) at >80° C., centrifuged (12,000 rpm×15 min) and the precipitate collected. A 5 cm C—18 RP-HPLC column was equilibrated with 10% acetonitrile with 0.1% TFA at 40° C., the sample was injected and run in an Agilent 1260 Infinity Quaternary LC System. (30 min at 1.5 mL/min; gradient from 10% to 35% acetonitrile in 0.1% TFA; Absorbance detected at 220 nm). Standard curves for HPLC were generated from plasma samples spiked with known quantities of test agent.
# [7] = system: plasmin; assay: digested with plasmin
# [8] = system: TNK; assay: TNK in phosphate buffered saline alone
# [9] = biological target: T1, PSD95PDZ2; assay: direct ELISA; biotinylated peptide
# Target sequence in this assay (P78352 160-246): as the sequence (P78352 160-246 limits assumed) above
# [10] = biological target: T1, PSD95PDZ2; assay: direct ELISA; biotinylated peptide; unit printed "um"
# Target sequence in this assay (P78352 160-246): as the sequence (P78352 160-246 limits assumed) above
# [11] = Plasma concentrations 15 minutes after subcutaneous dose in rats of the 3-pial vessel occlusion study; format: in vivo; details: rat
# Procedure: Unlike transient models of stroke in rats where much lower doses are required for neuroprotection, neuroprotection in 3 pial vessel occlusion models of stroke seems to require plasma concentrations of nerinetide at or above 2 ug/mL (or molar equivalent). […] Although the plasma levels continue to increase through about 3 hours then decrease, it is important to achieve rapid accumulation in the blood and brain for emergency indications like stroke. […] For pharmacokinetic sample analysis, calibration standard samples at concentrations of 0, 2.5, 5, 10, 15, 20 and 40 ug/mL of nerinetide were prepared by spiking 1 μL of the appropriate stock to 100 μL of plasma. […] Data is presented as mean±SD.
# [12] = Pharmacokinetics after subcutaneous injection in non-human primates; format: in vivo, cynomolgus macaques; details: for plasma concentrations: cynomolgus macaques
# Text: All values are presented as mean±SD; Statistical significance when compared to nerinetide alone is indicated as * (one-way ANOVA with post-hoc turkey's correction, *P<0.01). (Cmax: maximum plasma concentrations based on the extrapolated time-zero value; t1/2: half-life at terminal phase; tmax: time to reach Cmax; AUC0-t: area under the concentration-time curve from 0 to the last measured value; AUC0-inf: extrapolated area under the concentration-time curve from 0 to infinity; Cl: total clearance). Data is presented as mean±SD of three-four animals per group. The (−) represent data not reported due to an extrapolation of the AUC0-inf greater than 20% and R^2 lower than 0.9.
# [13] = system: histamine; assay: Histamine release in rat plasma (histamine ELISA)
# Procedure: Blood samples were collected at 11 timepoints: Pre, 2.5, 5, 10, 15, 30, 60 min, 3 hr, 6 hr, 12 hr and 24 hr. Histamine levels were quantified by using commercially available histamine ELISA assay kit (Histamine ELISA-H1531-K01, Eagle Bioscience). The plates were coated with the plasma samples (50 ul/well) incubated for 60 minutes at room temperature on an orbital shaker with medium frequency. Then 100 ul of enzyme conjugate was added to the wells and incubated for 20 minutes at room temperature. Samples were washed again, and then incubated for 25 minutes at room temperature with TMB solution. The reaction was stopped with 100 ul H2SO4. Absorbance was determined on an ELISA plate reader at 450 nm.
# Blood samples were taken at pre-injection and at 0, 1, 2.5, 5, 10, 15, 30- and 60-minutes post dose and used for histamine levels quantification using commercially available kit.
# [14] = subcutaneous 25 mg/kg versus nerinetide IV infusion
# [15] = listed as D-Tat-L-IESDV, 25 mg/kg
# [16] = subcutaneous 25, 8.3, 2.8 mg/kg
compound,measurement,setting,value
ygrkkrrqrrrKLSSIESDV ([dY]G[dR][dK][dK][dR][dR][dQ][dR][dR][dR]KLSSIESDV),not cleaved,[1],no degradation
same,not cleaved,[2],stable
same,not cleaved,[3],stable
D-NA-1 (peptide),fold difference of EC50 against NA-1 and D-Tat-L-2B9C,[4],10 fold
"CC[C@@H](C)[C@@H](NC(=O)[C@@H](CO)NC(=O)[C@@H](CO)NC(=O)[C@@H](CC(C)C)NC(=O)[C@@H](CCCCN)NC(=O)[C@@H](CCCNC(=N)N)NC(=O)[C@@H](CCCNC(=N)N)NC(=O)[C@@H](CCCNC(=N)N)NC(=O)[C@@H](CCC(N)=O)NC(=O)[C@@H](CCCNC(=N)N)NC(=O)[C@@H](CCCNC(=N)N)NC(=O)[C@@H](CCCCN)NC(=O)[C@@H](CCCCN)NC(=O)[C@@H](CCCNC(=N)N)NC(=O)CNC(=O)[C@H](N)Cc1ccc(O)cc1)C(=O)N[C@H](CCC(=O)O)C(=O)N[C@H](CO)C(=O)N[C@H](CC(=O)O)C(=O)N[C@@H](C(=O)O)C(C)C [D-NA-1, ygrkkrrqrrrklssiesdv] (H-[dY]G[dR][dK][dK][dR][dR][dQ][dR][dR][dR][dK][dL][dS][dS][dI][dE][dS][dD][dV]-OH)","EC50 compared among NA-1, D-Tat-L-2B9C and D-NA-1",[5]; FIG. 12,about ten-fold lower
same,"Cmax / plasma concentration, pulmonary instillation",[6],higher plasma concentration
same,"plasma exposure, pulmonary instillation",[6],greater plasma exposure
same,"AUC / plasma exposure, subcutaneous",[6],also increased Cmax and AUC relative to subcutaneous NA-1 but not to the same extent
same,"Cmax, subcutaneous",[6],also increased Cmax and AUC relative to subcutaneous NA-1 but not to the same extent
YGRKKRRQRRRKLSSIESDV,fragment found,[7],RRQRRRKLSSIESDV; also recorded: RQRRRKLSSIESDV; also recorded: QRRRKLSSIESDV; also recorded: RRKLSSIESDV; also recorded: RKLSSIESDV; also recorded: KLSSIESDV; also recorded: LSSIESDV
same,not cleaved,[1],no degradation
same,not cleaved,[8],not directly cleaved
D-NA-1 NA1 (Bio-D-NA1),EC50,[9],1380 nM
D-Tat-L-NA-1 (Bio-D-Tat-L-NA1),EC50,[10],139 nM
"CC[C@H](C)[C@H](NC(=O)[C@@H](CO)NC(=O)[C@@H](CO)NC(=O)[C@@H](CC(C)C)NC(=O)[C@@H](CCCCN)NC(=O)[C@@H](CCCNC(=N)N)NC(=O)[C@@H](CCCNC(=N)N)NC(=O)[C@@H](CCCNC(=N)N)NC(=O)[C@@H](CCC(N)=O)NC(=O)[C@@H](CCCNC(=N)N)NC(=O)[C@@H](CCCNC(=N)N)NC(=O)[C@@H](CCCCN)NC(=O)[C@@H](CCCCN)NC(=O)[C@@H](CCCNC(=N)N)NC(=O)CNC(=O)[C@H](N)Cc1ccc(O)cc1)C(=O)N[C@@H](CCC(=O)O)C(=O)N[C@@H](CO)C(=O)N[C@@H](CC(=O)O)C(=O)N[C@H](C(=O)O)C(C)C [NA-3, ygrkkrrqrrrklsslESDV] (H-[dY]G[dR][dK][dK][dR][dR][dQ][dR][dR][dR][dK][dL][dS][dS]IESDV-OH)",IC50,[5],< 5 µM
same,dose proportionality between treatment dose and Cmax,"[11]; single subcutaneous administration 25, 7.6, 2.5 mg/kg",dose proportionality
same,stability in plasma,"[11]; subcutaneous, compared to nerinetide",higher stability in plasma
same,plasma concentration at 15 min post-dose,"[11]; subcutaneous, compared to nerinetide at the same dose",higher concentration at 15 min post-dose
same,plasma concentrations,[12]; 7.6 mg/Kg subcutaneous,able to achieve plasma concentrations higher than those demonstrated to be effective in humans
same,plasma concentrations,[12]; 25 mg/kg subcutaneous,able to achieve plasma concentrations higher than those demonstrated to be effective in humans
same,AUC,[12]; [14],greater Cmax and AUC than nerinetide IV infusion
same,Cmax,[12]; [14],greater Cmax and AUC than nerinetide IV infusion
same,histamine release,[13]; 25 mg/kg SQ,resulted in histamine release but still much less than 7.6 mg/kg IV
same,histamine release,[13]; subcutaneous 2.8 mg/kg,Lack of significant histamine release
same,histamine release,"[13]; subcutaneous 2.8 mg/kg, listed as D-Tat-L-IESDV",did not result in significant histamine release
same,histamine release,[13]; subcutaneous 8.3 mg/kg,Lack of significant histamine release
same,histamine release,"[13]; subcutaneous 8.3 mg/kg, listed as D-Tat-L-IESDV",did not result in significant histamine release
same,"plasma exposure, pulmonary instillation",[6],greater plasma exposure
same,"Cmax / plasma concentration, pulmonary instillation",[6]; 25 mg/kg,higher plasma concentration
same,"Cmax / plasma concentration, pulmonary instillation",[6]; [15],higher CMax than for NA-1 or D-Tat-L-2B9C
same,"dose dependence of AUC, subcutaneous",[6]; [16],dose-dependent increasing linearly with dose
same,"dose dependence of Cmax, subcutaneous",[6]; [16],dose-dependent increasing linearly with dose
same,"AUC / plasma exposure, subcutaneous",[6]; 25 mg/kg,greater plasma exposure relative to SQ NA-1
same,"Cmax, subcutaneous",[6]; 25 mg/kg,higher plasma concentration
same,"AUC / plasma exposure, subcutaneous",[6]; [15],increased Cmax and AUC compared with subcutaneous NA-1
same,"Cmax, subcutaneous",[6]; [15],increased Cmax and AUC compared with subcutaneous NA-1
